Entries after “also recorded” stand apart in the source; their conditions may differ. Some results are limits rather than exact numbers.

One series addresses wtERBB2 (Homo sapiens (Human), UniProt P04626). The experiment in a line: HotSpot radiometric kinase activity assay, HER2 WT. The class given is biochemical. Here is the method: (§1) The purpose of the wtERBB2, ERBB2-A775_G776insYVMA (ERBB2YVMA), wtEGFR biochemical assay was to evaluate the inhibition (% inhibition and IC50 values) of the small molecule inhibitors by using the “HotSpot” radiometric kinase activity assay. HotSpot assays monitor the […] of kinase substrate by the radioactive gamma phosphate of adenosine triphosphate (33P-ATP) during biochemical reactions. HotSpot assays was performed in steps upon completion of the kinase reaction: deposition of a reaction mixture aliquot onto P81 ion exchange paper, extensive washing of the aforementioned P81 paper using phosphoric acid to remove unbound radiolabeled 33P-ATP from the P81 paper, and finally visualization and quantification of the dried P81 paper utilizing a phosphoimager. […] Typical reaction solutions (10 μL final reaction volume) contained the following buffer conditions: 20 mM Hepes (pH 7.5), 10 mM MgCl2, 1 mM EGTA, 0.01% Brij35, 0.02 mg/mL BSA, 0.1 mM Na3VO4, 2 mM DTT, 1% DMSO. The assay was primed by preparing a fresh 0.2 mg/mL solution of pEY (Sigma Cat: P7244) substrate in the reaction buffer and supplementing that solution with […] of MnCl2 as substrate cofactor (Sigma Cat: M9522). The kinase of interest was then added to the solution at the appropriate concentration (30 nM wtERBB2 from, or 20 nM ERBB2YVMA, or 4 nM wtEGFR) and gently mixed prior to delivery of compound in 100% DMSO by acoustic dispensing (Beckman Echo550). Compound, Kinase, and substrate were allowed to incubate for 20 minutes at room temperature prior to the initiation of the reaction by addition of 33P-ATP (PerkinElmer Cat: NEG602, final conc 10 μM). […] IC50 determinations were made from a plot of kinase activity as a function of inhibitor concentration fit to the 4-parameter IC50 equation with the enzyme concentration held constant using GraphPad Prism (San Diego).

Another series has as its target wtEGFR (Homo sapiens (Human), UniProt P00533). The experiment in a line: HotSpot radiometric kinase activity assay, EGFR WT. The class given is biochemical. Here is the method: as §1
The target of a further series is ERBB2-A775_G776insYVMA (Homo sapiens (Human), UniProt P04626, INS775YVMA). The experiment in a line: HotSpot radiometric kinase activity assay, HER2 YVMA. It counts as biochemical. Here is the method:
as §1

Another series in a line: in vivo. Particulars: mouse, tumor/plasma.
Another series deals with HCC1954. The experiment in a line: HCC1954 xenograft tumor growth inhibition. The class given is in vivo, mouse. How it is done: HCC1954 cells were thawed and cultured in vitro, and the HCC1954 cells were harvested for in vivo inoculation. After one week of acclimation, 16 female 6-8 weeks-old mice were used. After inoculation, the tumor volume and body weight of the mice were measured three times per week. When the average tumor volume reaches about 200 mm^3, mice were randomly grouped into 2 groups according to the tumor volume and body weight. Test drugs were administrated immediately afterward. Tumor volume and body weight measurements were taken twice a week. At the end of the study, tumor and plasma samples were collected. The mouse grouping and test material treatment for tumor growth inhibition is listed Table 7. Tumor size and body weight measurement were conducted twice weekly. At the end of study, Group 1 and Group 2 were split into 2 sub-groups, dosed and samples collected as described Table 8. At the end of treatment, tumor samples were collected for pharmacodynamic (PD) analysis.

The test system of the next series is MDAMB453. The experiment in a line: MDAMB453 breast cancer model. Particulars: 100 mg/kg PO daily for 14 days.
The next series has as its system KYSE410. Nature of the series: KYSE410 tumor model (HER2+ and KRAS G12C). The conditions noted are these: Compound 5 at 250 mg/kg.
In series [1] the test system is BT-474 breast cancer cell line. Nature of the series: BT-474 xenograft tumor growth inhibition. The class given is in vivo, mouse. The conditions noted are these: clinical reference compounds. Here is the method:
The tumor cells were routinely sub-cultured after confluence by trypsin-EDTA treatment, not to exceed 4-5 passages. The cells growing in an exponential growth phase were harvested and counted for tumor inoculation.
Tumor size and body weight measurement was conducted twice weekly.

A further series has as its system BaF3 P95Her2. Particulars: 100 mg/kg PO daily for 20 days.
Series [2] relates to NCI-N87-luciferase gastric cancer cell line. The experiment in a line: Intracranial NCI-N87-luciferase tumor model. The conditions noted are these: for Tumor Growth Inhibition: intracranial NCI-N87, 100 mg/kg QD.
The subject of the next series is JIMT-1. Nature of the series: JIMT-1 breast tumor model. The conditions noted are these: 20/15 mg/kg PO daily for 9 then 12 days.
In another series the target is EGFR (Homo sapiens (Human), UniProt P00533). Nature of the series: Enzyme inactivation kinetics, EGFR. It counts as biochemical. The conditions noted are these: Table 23.
EGFR, sequence (P00533 25-1210): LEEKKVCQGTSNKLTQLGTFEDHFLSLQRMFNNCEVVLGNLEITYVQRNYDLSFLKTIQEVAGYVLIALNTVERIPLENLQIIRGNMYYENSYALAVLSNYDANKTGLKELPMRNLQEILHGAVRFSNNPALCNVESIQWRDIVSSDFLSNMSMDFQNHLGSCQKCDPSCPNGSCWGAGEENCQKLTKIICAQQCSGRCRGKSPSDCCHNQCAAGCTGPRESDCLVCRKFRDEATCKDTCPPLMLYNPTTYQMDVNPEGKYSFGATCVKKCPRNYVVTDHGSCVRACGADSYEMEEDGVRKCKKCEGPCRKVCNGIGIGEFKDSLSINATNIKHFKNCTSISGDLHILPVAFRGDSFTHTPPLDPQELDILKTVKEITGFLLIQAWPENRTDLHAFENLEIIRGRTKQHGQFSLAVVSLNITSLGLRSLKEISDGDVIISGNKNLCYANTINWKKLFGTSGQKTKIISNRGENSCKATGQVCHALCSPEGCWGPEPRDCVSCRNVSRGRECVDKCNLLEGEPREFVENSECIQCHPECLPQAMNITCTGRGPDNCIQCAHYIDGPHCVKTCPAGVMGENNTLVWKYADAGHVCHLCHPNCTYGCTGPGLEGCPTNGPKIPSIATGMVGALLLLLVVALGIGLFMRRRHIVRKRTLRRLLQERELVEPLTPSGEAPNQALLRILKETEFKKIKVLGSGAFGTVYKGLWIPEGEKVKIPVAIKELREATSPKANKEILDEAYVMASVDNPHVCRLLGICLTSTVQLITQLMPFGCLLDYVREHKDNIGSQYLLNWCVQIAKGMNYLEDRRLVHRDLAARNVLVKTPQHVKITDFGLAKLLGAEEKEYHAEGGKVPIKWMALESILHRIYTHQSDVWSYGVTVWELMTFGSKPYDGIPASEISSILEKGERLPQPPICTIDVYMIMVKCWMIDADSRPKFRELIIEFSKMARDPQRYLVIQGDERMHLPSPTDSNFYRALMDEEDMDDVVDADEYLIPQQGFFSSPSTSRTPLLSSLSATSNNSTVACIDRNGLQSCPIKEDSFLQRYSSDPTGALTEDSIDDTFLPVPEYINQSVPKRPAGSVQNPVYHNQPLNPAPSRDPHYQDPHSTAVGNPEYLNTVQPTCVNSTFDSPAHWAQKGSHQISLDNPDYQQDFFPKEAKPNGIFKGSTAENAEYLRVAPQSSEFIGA

wtEGFR, sequence (P00533 25-1210): as above
ERBB2-A775_G776insYVMA, sequence (P04626 other isoform, or with tags, fused parts or gaps del 1-675/ins YVMA behind 775 limits assumed): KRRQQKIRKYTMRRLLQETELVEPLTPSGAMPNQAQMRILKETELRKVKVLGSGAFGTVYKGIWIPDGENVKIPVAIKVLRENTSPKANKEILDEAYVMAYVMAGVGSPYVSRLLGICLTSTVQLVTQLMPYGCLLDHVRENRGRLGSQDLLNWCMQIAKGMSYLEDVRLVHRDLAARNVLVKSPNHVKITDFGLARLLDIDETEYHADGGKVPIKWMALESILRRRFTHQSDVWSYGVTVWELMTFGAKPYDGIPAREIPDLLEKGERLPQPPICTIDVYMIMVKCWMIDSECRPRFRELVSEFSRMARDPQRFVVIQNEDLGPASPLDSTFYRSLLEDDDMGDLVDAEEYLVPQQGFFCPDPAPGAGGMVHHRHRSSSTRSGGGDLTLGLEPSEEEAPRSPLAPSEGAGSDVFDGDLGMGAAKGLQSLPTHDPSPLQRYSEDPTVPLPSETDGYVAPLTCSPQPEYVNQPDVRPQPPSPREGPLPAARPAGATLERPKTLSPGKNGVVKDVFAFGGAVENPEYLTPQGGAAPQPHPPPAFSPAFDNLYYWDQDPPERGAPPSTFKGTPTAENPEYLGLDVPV
wtERBB2, sequence (P04626 23-1255): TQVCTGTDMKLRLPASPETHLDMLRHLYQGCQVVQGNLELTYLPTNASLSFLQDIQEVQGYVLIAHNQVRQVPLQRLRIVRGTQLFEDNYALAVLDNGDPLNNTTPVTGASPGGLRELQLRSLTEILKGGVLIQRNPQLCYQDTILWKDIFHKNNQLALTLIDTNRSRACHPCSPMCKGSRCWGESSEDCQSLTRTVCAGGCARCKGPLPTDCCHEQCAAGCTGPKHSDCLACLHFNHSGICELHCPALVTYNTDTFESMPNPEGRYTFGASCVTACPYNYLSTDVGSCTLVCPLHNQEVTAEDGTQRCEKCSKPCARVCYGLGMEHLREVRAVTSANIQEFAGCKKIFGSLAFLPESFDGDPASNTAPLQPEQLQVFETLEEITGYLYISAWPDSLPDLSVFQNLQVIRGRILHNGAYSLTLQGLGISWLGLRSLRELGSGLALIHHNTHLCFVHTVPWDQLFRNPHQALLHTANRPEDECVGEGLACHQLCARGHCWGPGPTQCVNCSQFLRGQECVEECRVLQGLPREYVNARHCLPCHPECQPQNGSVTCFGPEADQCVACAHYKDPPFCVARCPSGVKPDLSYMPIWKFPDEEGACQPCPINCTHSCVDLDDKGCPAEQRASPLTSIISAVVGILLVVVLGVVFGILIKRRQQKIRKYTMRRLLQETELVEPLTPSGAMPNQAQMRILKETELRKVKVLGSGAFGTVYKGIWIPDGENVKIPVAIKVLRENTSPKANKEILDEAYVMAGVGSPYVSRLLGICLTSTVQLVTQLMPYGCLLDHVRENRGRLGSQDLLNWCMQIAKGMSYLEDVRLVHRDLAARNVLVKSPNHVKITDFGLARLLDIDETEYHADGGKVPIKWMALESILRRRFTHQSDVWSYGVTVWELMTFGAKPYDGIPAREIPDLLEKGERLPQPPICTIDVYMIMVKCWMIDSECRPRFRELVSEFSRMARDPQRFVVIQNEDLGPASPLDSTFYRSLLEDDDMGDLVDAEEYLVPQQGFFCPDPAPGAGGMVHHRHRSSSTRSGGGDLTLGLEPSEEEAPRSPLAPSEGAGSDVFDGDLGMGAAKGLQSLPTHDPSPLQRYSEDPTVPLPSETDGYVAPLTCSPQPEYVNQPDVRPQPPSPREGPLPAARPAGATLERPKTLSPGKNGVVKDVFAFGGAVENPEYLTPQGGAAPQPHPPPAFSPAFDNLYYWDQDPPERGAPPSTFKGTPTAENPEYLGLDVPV

By IC50 is commonly meant the concentration that inhibits the measured activity by half. As for `C=CC(=O)N1CCC(c2ccn3ncnc(Nc4ccc(Oc5ccn6ncnc6c5)c(C)c4)c23)CC1` [Compound 4, 1-(4-(4-((4-([1,2,4]triazolo[1,5-a]pyridin-7-yloxy)-3-methylphenyl)amino)pyrrolo[2,1-f][1,2,4]triazin-5-yl)piperidin-1-yl)prop-2-en-1-one], the IC50 on wtERBB2, on wtEGFR and at ERBB2-A775_G776insYVMA was under 200 nM each time.
One may read the Kp as the ratio of the level in a tissue or fluid to that in plasma or blood. The compound `C=CC(=O)N1CCC(Oc2cc3c(Nc4ccc(Cl)c(Cl)c4F)ncnc3cc2OC)CC1` [Poziotinib] had a concentration ratio (Kp) at 4 h in the series “in vivo” of 0.36.
Take `C=CC(=O)N1CCN(c2ccn3ncnc(Nc4ccc(Oc5ccn6ncnc6c5)c(C)c4)c23)CC1` [Compound 3, 1-(4-(4-((4-([1,2,4]triazolo[1,5-a]pyridin-7-yloxy)-3-methylphenyl)amino)pyrrolo[2,1-f][1,2,4]triazin-5-yl)piperazin-1-yl)prop-2-en-1-one]: the concentration for half-maximal inhibition (IC50) against wtERBB2, against wtEGFR and on ERBB2-A775_G776insYVMA was under 200 nM each time.
Consider `Cc1cc(Nc2ncnn3ccc(-c4cnn(CCNC(=O)/C=C/CN(C)C)c4)c23)ccc1Oc1ccn2ncnc2c1` [Compound 14, (E)-N-(2-(4-(4-((4-([1,2,4]triazolo[1,5-a]pyridin-7-yloxy)-3-methylphenyl)amino)pyrrolo[2,1-f][1,2,4]triazin-5-yl)-1H-pyrazol-1-yl)ethyl)-4-(dimethylamino)but-2-enamide], for which the concentration for half-maximal inhibition (IC50) at wtERBB2 is under 200 nM.
Consider `Cc1cc(Nc2ncnn3ccc(C4CCCN(C(=O)/C=C/CN(C)C)CC4)c23)ccc1Oc1ccn2ncnc2c1` (centres unmarked) [Compound 12, (E)-1-(4-(4-((4-([1,2,4]triazolo[1,5-a]pyridin-7-yloxy)-3-methylphenyl)amino)pyrrolo[2,1-f][1,2,4]triazin-5-yl)azepan-1-yl)-4-(dimethylamino)but-2-en-1-one], for which the 50% inhibitory concentration (IC50) against wtERBB2 and on ERBB2-A775_G776insYVMA was under 200 nM each time.
In the case of `Cc1cc(Nc2ncnn3ccc(C4CC5(C4)CN(C(=O)/C=C/CN(C)C)C5)c23)ccc1Oc1ccn2ncnc2c1` [Compound 13, (E)-1-(6-(4-((4-([1,2,4]triazolo[1,5-a]pyridin-7-yloxy)-3-methylphenyl)amino)pyrrolo[2,1-f][1,2,4]triazin-5-yl)-2-azaspiro[3.3]heptan-2-yl)-4-(dimethylamino)but-2-en-1-one], the half-inhibitory concentration (IC50) at wtERBB2 and at ERBB2-A775_G776insYVMA was under 200 nM throughout.
`Cc1cc(Nc2ncnc3ccc(NC4=NC(C)(C)CO4)cc23)ccc1Oc1ccn2ncnc2c1` [Tucatinib]: the “TGI (tumor growth inhibition)” value in the series on HCC1954 (HCC1954, 100 mg/kg PO daily for 21 days) was found to be 30%; in the series with MDAMB453 it was 90%; in the series with BaF3 P95Her2 it was 99%. Further, the anti-tumor effect entry in the series with HCC1954 (HCC1954, comparator) is on record as “tumor stasis”. Besides, the “anti-tumor effect (FIG. 29)” value in the series on HCC1954 (HCC1954 xenograft, Compound 5 100 and 250 mg/kg, tucatinib 100 mg/kg) was “did not achieve tumor stasis”. Also, the “anti-tumor activity, in words” value in the series on KYSE410 is listed as “ineffective; also recorded: weak or no activity; also recorded: weak/no activity”. The “TR compared with Compound 5” value in [1] is “significantly less TR than Compound 5”. Also, the “antitumor effect in intracranial model, in words” value in series [2] (NCI-N87-luc intracranial xenograft) is listed as “only modest single agent effect”. In addition, the “Tumor Growth Inhibition” value is 9% in series [2] (Day 5); −11% in series [2] (Day 9); −14% in series [2] (Day 13); 18% in series [2] (Day 16); 45% in [2] (Day 19); 25% in series [2] (Day 23). The “Tumor Growth Inhibition” value in [2] (Day 26) was determined as 30%.
For `C=CC(=O)N1CC(c2ccn(-c3ccn4ncnc(Nc5ccc(Oc6ccn7ncnc7c6)c(C)c5)c34)n2)C1` [Compound 8, 1-(3-(1-(4-((4-([1,2,4]triazolo[1,5-a]pyridin-7-yloxy)-3-methylphenyl)amino)pyrrolo[2,1-f][1,2,4]triazin-5-yl)-1H-pyrazol-3-yl)azetidin-1-yl)prop-2-en-1-one], the half-inhibitory concentration (IC50) at wtERBB2, against wtEGFR and against ERBB2-A775_G776insYVMA was under 200 nM throughout.
With `CCOc1cc2ncnc(Nc3ccc(Oc4ccn5ncnc5c4)c(C)c3)c2cc1NC(=O)/C(F)=C/[C@H]1CCCN1C` [SPH5030], the “TR compared with Compound 5” value in series [1] is given as “significantly less TR than Compound 5”.
In general, TGI refers to how far tumour growth fell short of that in controls. A high value points to a stronger effect on the tumour. As to `Cc1nc(NC(=O)N2CCC[C@H]2C(N)=O)sc1-c1ccnc(C(C)(C)C(F)(F)F)c1` [alpilisib], the tumour growth inhibition (TGI) in the series on JIMT-1 came to 64%.
Consider `Cc1cc(Nc2ncnn3ccc(C4CN(C(=O)/C=C/CN(C)C)C4)c23)ccc1Oc1ccn2ncnc2c1` [Compound 1, (E)-1-(3-(4-((4-([1,2,4]triazolo[1,5-a]pyridin-7-yloxy)-3-methylphenyl)amino)pyrrolo[2,1-f][1,2,4]triazin-5-yl)azetidin-1-yl)-4-(dimethylamino)but-2-en-1-one], for which the IC50 on wtERBB2, at wtEGFR and against ERBB2-A775_G776insYVMA was under 200 nM each time.
On to `Cc1noc2ccc(C(=O)Nc3ccc4[nH]c(CN5CCCC5)nc4c3)cc12` [ELVN-002], for which, on EGFR, the “EGFR kinact (s − 1)” value is given as 1.1 × 10^−2 s − 1, the “HER2 vs. EGFR Kinetic Selectivity” value is 47 and the Ki was found to be 680 nM.

(Values after US20250345339A1, “DOSES AND REGIMENS OF HER2 INHIBITORS” (IAMBIC THERAPEUTICS, INC., priority 2024, published 2025).)
